From patent US12662470B2, “Hydroxy and (halo)alkoxy substituted tetrahydrofurans as modulators of sodium channels” (VERTEX PHARMACEUTICALS INCORPORATED, priority 2021, dated 2026) come the findings set out here.

Molecules are shown by their SMILES. Bounds are passed on as bounds.

The target of this assay is human NaV 1.8 (Homo sapiens, UniProt Q9Y5Y9). As to the kind of experiment: E-VIPR Assay Detecting and Measuring NaV Inhibition Properties. Conditions: HEK cells expressing a truncated form of human NaV 1.8. In kind it is cell-based. The source says:
Sodium ion channels are voltage-dependent proteins that can be activated by inducing membrane voltage changes by applying electric fields. The electrical stimulation instrument and methods of use, referred to as E-VIPR, are described in International Publication No. WO 2002/008748 A3 and C.-J. Huang et al. Characterization of voltage-gated sodium channel blockers by electrical stimulation and fluorescence detection of membrane potential, 24 Nature Biotech. 439-46 (2006), both of which are incorporated by reference in their entirety. The instrument comprises a microtiter plate handler, an optical system for exciting the coumarin dye while simultaneously recording the coumarin and oxonol emissions, a waveform generator, a current- or voltage-controlled amplifier, and parallel electrode pairs that are inserted into assay plate wells. Under integrated computer control, this instrument passes user-programmed electrical stimulus protocols to cells within the wells of the microtiter plate.
16-20 hours prior to running the assay on E-VIPR, HEK cells expressing a truncated form of human NaV 1.8 with full channel activity were seeded into microtiter 384-well plates, pre-coated with matrigel, at a density of 25,000 cells per well. 2.5-5% KIR2.1 Bacmam virus was added to the final cell suspension before seeding into cell plates. HEK cells were grown in Dulbecco's Modified Eagle's Medium (DMEM) supplemented with 10% FBS (Fetal Bovine Serum, qualified; Sigma #F4135), 1% NEAA (Non-Essential Amino Acids, Gibco #11140), 1% HEPES (Gibco #15630), 1% Pen-Strep (Penicillin-Streptomycin; Gibco #15140) and 5 μg/ml Blasticidin (Gibco #R210-01). Cells were expanded in vented cap cell culture flasks, with 90-95% humidity and 5% CO2.
Reagents and Stock Solutions:
• 100 mg/mL Pluronic F-127 (Sigma #P2443), in dry DMSO • Compound Plates: Corning 384-well Polypropylene Round Bottom #3656 • Cell Plates: 384-well tissue culture treated plates (Greiner #781091-2B)
2.5-5% KIR 2.1 Bacmam virus (produced in-house), prepared as described in Section 3.3 of J. A. Fornwald et al., Gene Expression in Mammalian Cells Using BacMam, a Modified Baculovirus System, 1350 Methods in Molecular Biology 95-116 (2016), the entire contents of which are incorporated by reference. The concentration used can be dependent on viral titer of each batch.
5 mM DiSBAC6(3), a voltage sensitive oxonol acceptor (CAS number 169211-44-3; 5-[3-(1,3-dihexylhexahydro-4,6-dioxo-2-thioxo-5-pyrimidinyl)-2-propen-1-ylidene]-1,3-dihexyldihydro-2-thioxo-4,6(1H,5H)-pyrimidinedione), in dry DMSO. The preparation of DiSBAC6(3) is analogous to that of DiSBAC4(3) as described in Voltage Sensing by Fluorescence Resonance Energy Transfer in Single Cells, Gonzalez, J. E. and Tsien, R. Y. (1995) Biophys. J. 69, 1272-1280.
5 mM CC2-DMPE, a commercially available membrane-bound coumarin phospholipid FRET donor (ThermoFisher Scientific catalog number K1017, CAS number 393782-57-5; tetradecanoic acid, 1,1′-[(1R)-1-[8-(6-chloro-7-hydroxy-2-oxo-2H-1-benzopyran-3-yl)-3-hydroxy-3-oxido-8-oxo-2,4-dioxa-7-aza-3-phosphaoct-1-yl]-1,2-ethanediyl] ester) was prepared in dry DMSO. See also, Improved indicators of cell membrane potential that use fluorescence resonance energy transfer, Gonzalez, J. E. and Tsien, R. Y. (1997) Chem. Biol. 4, 269-277.
Voltage Assay Background Suppression Compound (VABSC-1) is prepared in H2O (89-363 mM, range used to maintain solubility)
Human Serum (HS, Millipore #S1P1-01KL, or Sigma SLBR5469V and SLBR5470V as a 50%/50% mixture, for 25% assay final concentration)
• Sodium Chloride 160 mM (9.35 g/L), Potassium Chloride, 4.5 mM (0.335 g/L), Glucose 10 mM (1.8 g/L), Magnesium Chloride (Anhydrous) 1 mM (0.095 g/L), Calcium Chloride 2 mM (0.222 g/L), HEPES 10 mM (2.38 g/L) in water. […]

The mark [1] stands for this setting: compound number with "*": assay performed in the presence of human serum.
[2] abbreviates: compound number without "*" (not marked as run in the presence of human serum).

The term IC50 denotes the concentration at which inhibition is half-maximal.

human NaV 1.8, sequence (Q9Y5Y9 126-1722 limits assumed): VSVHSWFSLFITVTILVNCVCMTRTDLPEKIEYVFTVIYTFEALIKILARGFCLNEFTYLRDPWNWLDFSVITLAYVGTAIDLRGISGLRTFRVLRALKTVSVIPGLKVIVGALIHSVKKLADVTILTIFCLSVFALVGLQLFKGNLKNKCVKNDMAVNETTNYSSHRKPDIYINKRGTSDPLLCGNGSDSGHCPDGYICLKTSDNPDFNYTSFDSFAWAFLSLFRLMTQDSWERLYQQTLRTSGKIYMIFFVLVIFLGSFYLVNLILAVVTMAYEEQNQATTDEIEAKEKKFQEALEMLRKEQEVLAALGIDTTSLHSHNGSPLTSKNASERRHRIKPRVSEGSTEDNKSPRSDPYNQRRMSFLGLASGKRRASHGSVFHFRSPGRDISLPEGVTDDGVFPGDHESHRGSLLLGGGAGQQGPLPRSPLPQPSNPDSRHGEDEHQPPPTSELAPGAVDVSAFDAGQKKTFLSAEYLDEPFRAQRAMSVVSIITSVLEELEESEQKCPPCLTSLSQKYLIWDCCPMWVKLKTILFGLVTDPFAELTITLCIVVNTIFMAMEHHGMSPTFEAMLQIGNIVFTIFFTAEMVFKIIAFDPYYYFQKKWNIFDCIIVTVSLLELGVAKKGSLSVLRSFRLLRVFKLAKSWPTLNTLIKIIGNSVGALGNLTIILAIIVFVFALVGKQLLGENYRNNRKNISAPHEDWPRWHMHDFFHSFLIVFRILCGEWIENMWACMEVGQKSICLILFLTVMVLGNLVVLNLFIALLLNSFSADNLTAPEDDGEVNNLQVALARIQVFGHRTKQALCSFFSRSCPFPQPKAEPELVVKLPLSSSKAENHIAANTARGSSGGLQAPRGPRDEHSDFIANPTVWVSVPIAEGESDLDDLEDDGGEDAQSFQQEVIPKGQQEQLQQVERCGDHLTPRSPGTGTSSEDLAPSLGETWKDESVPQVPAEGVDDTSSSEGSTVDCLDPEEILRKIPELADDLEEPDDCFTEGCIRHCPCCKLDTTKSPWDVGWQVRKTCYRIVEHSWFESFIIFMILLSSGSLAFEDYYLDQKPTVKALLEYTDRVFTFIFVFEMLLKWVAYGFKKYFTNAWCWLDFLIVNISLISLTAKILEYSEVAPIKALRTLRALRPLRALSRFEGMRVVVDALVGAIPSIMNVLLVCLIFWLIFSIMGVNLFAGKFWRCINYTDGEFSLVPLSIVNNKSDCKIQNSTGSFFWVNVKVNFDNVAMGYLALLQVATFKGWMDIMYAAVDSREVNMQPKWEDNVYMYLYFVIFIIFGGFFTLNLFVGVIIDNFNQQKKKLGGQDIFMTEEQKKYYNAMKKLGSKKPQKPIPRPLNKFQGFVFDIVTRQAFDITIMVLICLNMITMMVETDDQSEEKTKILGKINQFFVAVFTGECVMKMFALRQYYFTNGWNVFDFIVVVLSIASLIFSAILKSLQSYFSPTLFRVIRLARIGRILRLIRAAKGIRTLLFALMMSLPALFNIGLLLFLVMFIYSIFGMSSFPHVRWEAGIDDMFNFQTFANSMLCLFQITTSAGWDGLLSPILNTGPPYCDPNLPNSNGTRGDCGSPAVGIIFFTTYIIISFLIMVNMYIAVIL

On to `COc1c([C@@H]2[C@H](OC)[C@H](C)O[C@H]2C(=O)Nc2ccnc([C@@H](O)CO)c2)ccc(F)c1F` (single isomer, unassigned) [Compound 9, rel-(2R*,3R*,4S*,5S*)-3-(3,4-difluoro-2-methoxyphenyl)-N-(2-(1,2-dihydroxyethyl)pyridin-4-yl)-4-methoxy-5-methyltetrahydrofuran-2-carboxamide], for which the IC50 under setting [1] is no less than 1000 nM.

With `COc1c([C@@H]2[C@H](OC)[C@H](C)O[C@H]2C(=O)Nc2ccnc([C@H](O)CO)c2)ccc(F)c1F` (single isomer, unassigned) [Compound 10, rel-(2R*,3R*,4S*,5S*)-3-(3,4-difluoro-2-methoxyphenyl)-N-(2-(1,2-dihydroxyethyl)pyridin-4-yl)-4-methoxy-5-methyltetrahydrofuran-2-carboxamide], the IC50 under setting [1] was no less than 1000 nM.

Regarding `COc1c([C@@H]2[C@H](OC)[C@H](C)O[C@H]2C(=O)Nc2ccnc([C@@](C)(O)CO)c2)ccc(F)c1F` (single isomer, unassigned) [Compound 11, rel-(2R*,3R*,4S*,5S*)-3-(3,4-difluoro-2-methoxyphenyl)-N-(2-(1,2-dihydroxypropan-2-yl)pyridin-4-yl)-4-methoxy-5-methyltetrahydrofuran-2-carboxamide], the IC50 under setting [1] was no less than 1000 nM.

For `COc1c([C@@H]2[C@H](OC)[C@H](C)O[C@H]2C(=O)Nc2ccnc([C@](C)(O)CO)c2)ccc(F)c1F` (single isomer, unassigned) [Compound 12, rel-(2R*,3R*,4S*,5S*)-3-(3,4-difluoro-2-methoxyphenyl)-N-(2-(1,2-dihydroxypropan-2-yl)pyridin-4-yl)-4-methoxy-5-methyltetrahydrofuran-2-carboxamide], under setting [1], the IC50 was no less than 1000 nM.

Turning to `COc1c([C@H]2[C@H](C(=O)Nc3ccnc([C@@H](O)CO)c3)OC(C)(C)[C@H]2OC)ccc(F)c1F` (single isomer, unassigned) [Compound 20], the IC50 under setting [1] lay within 100 to 1000 nM.

Turning to `COc1c([C@@H]2[C@@H](C(=O)Nc3ccnc([C@@H](O)CO)c3)OC(C)(C)[C@@H]2OC)ccc(F)c1F` (single isomer, unassigned) [Compound 21], the concentration for half-maximal inhibition (IC50) under setting [1] was no less than 1000 nM.

With `COc1c([C@H]2[C@H](C(=O)Nc3ccnc([C@H](O)CO)c3)OC(C)(C)[C@H]2OC)ccc(F)c1F` (single isomer, unassigned) [Compound 22], the IC50 under setting [1] was 100 to 1000 nM.

In the case of `COc1c([C@@H]2[C@@H](C(=O)Nc3ccnc([C@H](O)CO)c3)OC(C)(C)[C@@H]2OC)ccc(F)c1F` (single isomer, unassigned) [Compound 23], under setting [1], the IC50 was no less than 1000 nM.

On to `COc1c([C@H]2[C@H](C(=O)Nc3ccnc(C(N)=O)c3)OC(C)(C)[C@H]2OC)ccc(F)c1F` (stereo in doubt) [Compound 18, rel-4-((2R,3R,4S)-3-(3,4-difluoro-2-methoxyphenyl)-4-methoxy-5,5-dimethyltetrahydrofuran-2-carboxamido)picolinamide], for which the IC50 under setting [2] fell in the range of 10 to 100 nM.

For the compound `COc1c([C@@H]2[C@@H](C(=O)Nc3ccnc(C(N)=O)c3)OC(C)(C)[C@@H]2OC)ccc(F)c1F` (stereo in doubt) [Compound 19, rel-4-((2S,3S,4R)-3-(3,4-difluoro-2-methoxyphenyl)-4-methoxy-5,5-dimethyltetrahydrofuran-2-carboxamido)picolinamide], the IC50 under setting [1] was no less than 1000 nM.

As for `COc1c([C@H]2[C@H](C(=O)Nc3ccnc(C(N)=O)c3)O[C@@](C)(C(F)(F)F)[C@H]2OC)ccc(F)c1F` [Compound 1, 4-((2R,3R,4S,5R)-3-(3,4-difluoro-2-methoxyphenyl)-4-methoxy-5-methyl-5-(trifluoromethyl)tetrahydrofuran-2-carboxamido)picolinamide], under setting [2], the IC50 is less than 10 nM.

Consider `COc1c([C@H]2[C@H](C(=O)Nc3ccnc(C(N)=O)c3)O[C@@](C)(C(F)(F)F)[C@H]2O)ccc(F)c1F` [Compound 2, 4-((2R,3R,4S,5R)-3-(3,4-difluoro-2-methoxyphenyl)-4-hydroxy-5-methyl-5-(trifluoromethyl)tetrahydrofuran-2-carboxamido)picolinamide], for which the concentration for half-maximal inhibition (IC50) under setting [2] is 100 to 1000 nM.

Regarding `COc1c([C@H]2[C@H](C(=O)Nc3ccnnc3)O[C@@](C)(C(F)(F)F)[C@H]2O)ccc(F)c1F` [Compound 3, (2R,3R,4S,5R)-3-(3,4-difluoro-2-methoxyphenyl)-4-hydroxy-5-methyl-N-(pyridazin-4-yl)-5-(trifluoromethyl)tetrahydrofuran-2-carboxamide], under setting [2], the IC50 was no less than 1000 nM.

As to `COc1c([C@H]2[C@H](C(=O)Nc3ccnnc3)O[C@@](C)(C(F)(F)F)[C@H]2OC)ccc(F)c1C` [Compound 4, (2R,3R,4S,5R)-3-(4-fluoro-2-methoxy-3-methylphenyl)-4-methoxy-5-methyl-N-(pyridazin-4-yl)-5-(trifluoromethyl)tetrahydrofuran-2-carboxamide], the IC50 under setting [2] was less than 10 nM.

Turning to `COc1c([C@H]2[C@H](C(=O)Nc3ccnc(C(N)=O)c3)O[C@@](C)(C(F)(F)F)[C@H]2OC)ccc(F)c1C` [Compound 5, 4-((2R,3R,4S,5R)-3-(4-fluoro-2-methoxy-3-methylphenyl)-4-methoxy-5-methyl-5-(trifluoromethyl)tetrahydrofuran-2-carboxamido)picolinamide], the IC50 under setting [2] is less than 10 nM.

On to `COc1c([C@H]2[C@H](C(=O)Nc3ccc([C@@H](O)CO)nc3)O[C@@](C)(C(F)(F)F)[C@H]2OC)ccc(F)c1C` [Compound 6, (2R,3R,4S,5R)-N-(6-((R)-1,2-dihydroxyethyl)pyridin-3-yl)-3-(4-fluoro-2-methoxy-3-methylphenyl)-4-methoxy-5-methyl-5-(trifluoromethyl)tetrahydrofuran-2-carboxamide], for which the IC50 under setting [2] was in the range of 10 to 100 nM.

On to `CO[C@H]1[C@@H](c2ccc(F)c(F)c2C)[C@H](C(=O)Nc2ccnc(C(N)=O)c2)O[C@@]1(C)C(F)(F)F` [Compound 7, 4-((2R,3R,4S,5R)-3-(3,4-difluoro-2-methylphenyl)-4-methoxy-5-methyl-5-(trifluoromethyl)tetrahydrofuran-2-carboxamido)picolinamide], for which the IC50 under setting [2] was less than 10 nM.

Turning to `COc1c([C@@H]2[C@H](OC)[C@H](C)O[C@H]2C(=O)Nc2ccnc(C(N)=O)c2)ccc(F)c1F` [Compound 8, 4-((2R,3R,4S,5S)-3-(3,4-difluoro-2-methoxyphenyl)-4-methoxy-5-methyltetrahydrofuran-2-carboxamido)picolinamide], the IC50 under setting [2] is 100 to 1000 nM.

`CCO[C@H]1[C@@H](c2ccc(F)c(F)c2OC)[C@H](C(=O)Nc2ccnc(C(N)=O)c2)O[C@H]1C` [Compound 13, 4-((2R,3R,4S,5S)-3-(3,4-difluoro-2-methoxyphenyl)-4-ethoxy-5-methyltetrahydrofuran-2-carboxamido)picolinamide]: the IC50 under setting [2] is 100 to 1000 nM.

In the case of `COc1c([C@@H]2[C@H](OC(C)C)[C@H](C)O[C@H]2C(=O)Nc2ccnc(C(N)=O)c2)ccc(F)c1F` [Compound 14, 4-((2R,3R,4S,5S)-3-(3,4-difluoro-2-methoxyphenyl)-4-isopropoxy-5-methyltetrahydrofuran-2-carboxamido)picolinamide], the IC50 under setting [2] was 100 to 1000 nM.

On to `COc1c([C@@H]2[C@H](OC(C)C)[C@H](C)O[C@H]2C(=O)Nc2ccc(C(N)=O)nc2)ccc(F)c1F` [Compound 15, 5-((2R,3R,4S,5S)-3-(3,4-difluoro-2-methoxyphenyl)-4-isopropoxy-5-methyltetrahydrofuran-2-carboxamido)picolinamide], for which the IC50 under setting [2] was no less than 1000 nM.
